{
  "source": "patent US20130338142A1",
  "about": "“IMIDAZOPYRAZINE SYK INHIBITORS” (Gilead Connecticut, Inc., priority 2012, published 2013)",
  "key": {"[1]": {"biological_target": "Syk (Homo sapiens, UniProt P43405)", "experiment": "High throughput Syk assay (TR-FRET, KinEASE)", "type": "biochemical", "settings": "Syk TR-FRET assay of Example B2; 3 μM ATP, 0.5 nM Syk", "experimental": "The following high throughput Syk assay was performed on the compounds of Table 1 as follows.\nSyk activity was measured by detecting phosphorylated peptide substrate formation using antibody against phosphorylated peptide substrate. This is a time-resolved fluorescence resonance energy transfer (TR-FRET) immunoassay, based on the KinEASE Assay (Cisbio). […] Test compounds (in DMSO) were spotted into 384 well plates using a Labcyte® Echo 550 Liquid Handling System prior to addition of Syk enzyme and peptide substrate. Reaction solutions were delivered using a Multi-Flo (Bio-Tek Instruments). The enzyme and peptide solution was incubated with compound for 60 minutes at room temp before the reaction was initiated by the addition of ATP. […] The europium donor was excited using a 340-nm excitation filter with a 30-nm band pass. Energy transfer to the tracer was measured using a filter centered at 665 nm with a 10 nm bandpass. This signal was then referenced to the emission from europium peak, using a 615 nm, 10-nm bandpass filter. The “emission ratio” was calculated as the 665 nm signal divided by the 615 nm signal. Percentage of inhibition was calculated as below:\n% Inhibition=100×(RatioSample−Ratio0% Inhibition)/(Ratio100% Inhibition−Ratio0% Inhibition)"}, "[2]": {"experiment": "Kinetic solubility study", "settings": "37 °C, kinetic from dmso stock", "protocol": "The compounds tested (as listed in Table 2 below) were dissolved in dimethyl sulfoxide (DMSO) at a 10 mM concentration. A 3 μL sample aliquot of the DMSO solution is then added to 297 μL of desired aqueous media (pH 2, pH 5.4, and pH 7.4). The sample is then incubated for 24 hrs at 37° C. with shaking. After 24 hrs the samples are centrifuged, an aliquot of the supernatant liquid is removed and analyzed by HPLC. The compound concentration in the sample is determined by reference to a sample of the compound with known standard concentration."}, "[3]": {"settings": "aqueous media, pH 2, aqueous buffer"}, "[4]": {"settings": "aqueous media, pH 5.4, aqueous buffer"}, "[5]": {"settings": "aqueous media, pH 7.4, aqueous buffer"}},
  "note": "pIC50: −log10 of the molar value.",
  "data": [
    {"smiles": "COc1cc(Nc2nc(-c3cnc4c(c3)NCCO4)cn3ccnc23)ccc1N1CCOCC1", "note": "[Compound 1, 6-(2,3-dihydro-1H-pyrido[2,3-b][1,4]oxazin-7-yl)-N-(3-methoxy-4-morpholinophenyl)imidazo[1,2-a]pyrazin-8-amine]", "values": [
      {"measurement": "pIC50", "setting": "[1]", "result": 8.52},
      {"measurement": "solubility at 24 h", "setting": "[2]; [3]", "result": 98, "unit": "µM"},
      {"measurement": "solubility at 24 h", "setting": "[2]; [4]", "result": 95, "unit": "µM"},
      {"measurement": "solubility at 24 h", "setting": "[2]; [5]", "result": 95, "unit": "µM"}
    ]},
    {"smiles": "c1cn2cc(-c3cnc4c(c3)NCCO4)nc(Nc3ccc(N4CCOCC4)cc3)c2n1", "note": "[Compound 28x, 6-(2,3-dihydro-1H-pyrido[2,3-b][1,4]oxazin-7-yl)-N-(4-morpholinophenyl)imidazo[1,2-a]pyrazin-8-amine, reference compound]", "values": [
      {"measurement": "solubility at 24 h", "setting": "[2]; [3]", "result": 90, "unit": "µM"},
      {"measurement": "solubility at 24 h", "setting": "[2]; [4]", "result": 9, "unit": "µM"},
      {"measurement": "solubility at 24 h", "setting": "[2]; [5]", "result": 9, "unit": "µM"}
    ]},
    {"smiles": "COc1cc(Nc2nc(-c3ccc4cn[nH]c4c3)cn3ccnc23)ccc1N1CCOCC1", "note": "[Compound 90x, 6-(1H-indazol-6-yl)-N-(3-methoxy-4-morpholinophenyl)imidazo[1,2-a]pyrazin-8-amine, reference compound]", "values": [
      {"measurement": "solubility at 24 h", "setting": "[2]; pH 2, aqueous buffer", "result": 94, "unit": "µM"},
      {"measurement": "solubility at 24 h", "setting": "[2]; pH 5.4, aqueous buffer", "result": 3, "unit": "µM"},
      {"measurement": "solubility at 24 h", "setting": "[2]; pH 7.4, aqueous buffer", "result": 3, "unit": "µM"}
    ]},
    {"smiles": "COc1cc(Nc2nc(-c3cnc4c(c3)NCCO4)cn3ccnc23)ccc1N1CCOCC1", "note": "[Example 5a, 6-(2,3-dihydro-1H-pyrido[2,3-b][1,4]oxazin-7-yl)-N-(3-methoxy-4-morpholinophenyl)imidazo[1,2-a]pyrazin-8-amine]", "values": [
      {"measurement": "melting point", "result": "233 to 234", "unit": "°C"}
    ]},
    {"smiles": "COc1cc(Nc2nc(-c3ccc4c(c3)NCCO4)cn3ccnc23)ccc1N1CCN(C2COC2)CC1", "note": "[Compound 4, 6-(3,4-dihydro-2H-benzo[b][1,4]oxazin-6-yl)-N-(3-methoxy-4-(4-(oxetan-3-yl)piperazin-1-yl)phenyl)imidazo[1,2-a]pyrazin-8-amine]", "values": [
      {"measurement": "pIC50", "setting": "[1]", "result": 8.40},
      {"measurement": "solubility at 24 h", "setting": "[2]; [3]", "result": 94, "unit": "µM"},
      {"measurement": "solubility at 24 h", "setting": "[2]; [4]", "result": 94, "unit": "µM"},
      {"measurement": "solubility at 24 h", "setting": "[2]; [5]", "result": 57, "unit": "µM"}
    ]},
    {"smiles": "COc1cc(Nc2nc(-c3ccc4c(c3)CNCCO4)cn3ccnc23)ccc1N1CCOCC1", "note": "[Compound 3]", "values": [
      {"measurement": "pIC50", "setting": "[1]", "result": 8.15},
      {"measurement": "solubility at 24 h", "setting": "[2]; [3]", "result": 100, "unit": "µM"},
      {"measurement": "solubility at 24 h", "setting": "[2]; [4]", "result": 100, "unit": "µM"},
      {"measurement": "solubility at 24 h", "setting": "[2]; [5]", "result": 100, "unit": "µM"}
    ]},
    {"smiles": "c1cn2cc(-c3ccc4c(c3)NCCO4)nc(Nc3ccc(N4CCN(C5COC5)CC4)cc3)c2n1", "note": "[Compound 24, 6-(3,4-dihydro-2H-benzo[b][1,4]oxazin-6-yl)-N-(4-(4-(oxetan-3-yl)piperazin-1-yl)phenyl)imidazo[1,2-a]pyrazin-8-amine]", "values": [
      {"measurement": "solubility at 24 h", "setting": "[2]; [3]", "result": 100, "unit": "µM"},
      {"measurement": "solubility at 24 h", "setting": "[2]; [4]", "result": 61, "unit": "µM"},
      {"measurement": "solubility at 24 h", "setting": "[2]; [5]", "result": 33, "unit": "µM"}
    ]},
    {"smiles": "COc1cc(Nc2nc(-c3ccc4c(c3)NCCO4)cn3ccnc23)ccc1N1CC[C@@H](N)C1", "note": "[Compound 9, (R)-N-(4-(3-aminopyrrolidin-1-yl)-3-methoxyphenyl)-6-(3,4-dihydro-2H-benzo[b][1,4]oxazin-6-yl)imidazo[1,2-a]pyrazin-8-amine]", "values": [
      {"measurement": "pIC50", "setting": "[1]", "result": 8.22}
    ]},
    {"smiles": "CN(C)C[C@@H]1CN(c2ccc(Nc3nc(-c4cnc5c(c4)NCCO5)cn4ccnc34)cc2)CCO1", "note": "[Compound 61, (R)-6-(2,3-dihydro-1H-pyrido[2,3-b][1,4]oxazin-7-yl)-N-(4-(2-((dimethylamino)methyl)morpholino)phenyl)imidazo[1,2-a]pyrazin-8-amine]", "values": [
      {"measurement": "pIC50", "setting": "[1]", "result": 8.05}
    ]},
    {"smiles": "COc1cc(Nc2nc(-c3cnc4c(c3)NCCO4)cn3ccnc23)ccc1N1CCC(=O)CC1", "note": "[Compound 104, 1-(4-((6-(2,3-dihydro-1H-pyrido[2,3-b][1,4]oxazin-7-yl)imidazo[1,2-a]pyrazin-8-yl)amino)-2-methoxyphenyl)piperidin-4-one]", "values": [
      {"measurement": "pIC50", "setting": "[1]", "result": 8.40}
    ]},
    {"smiles": "CON=C1CCN(c2ccc(Nc3nc(-c4cnc5c(c4)NCCO5)cn4ccnc34)cc2OC)CC1", "note": "[Compound 106, 1-(4-((6-(2,3-dihydro-1H-pyrido[2,3-b][1,4]oxazin-7-yl)imidazo[1,2-a]pyrazin-8-yl)amino)-2-methoxyphenyl)piperidin-4-one O-methyl oxime]", "values": [
      {"measurement": "pIC50", "setting": "[1]", "result": 8.22}
    ]},
    {"smiles": "c1cn2cc(-c3cnc4c(c3)NCCO4)nc(Nc3cnn(C4CCOCC4)c3)c2n1", "note": "[Compound 44, 6-(2,3-dihydro-1H-pyrido[2,3-b][1,4]oxazin-7-yl)-N-(1-(tetrahydro-2H-pyran-4-yl)-1H-pyrazol-4-yl)imidazo[1,2-a]pyrazin-8-amine]", "values": [
      {"measurement": "pIC50", "setting": "[1]", "result": 8.30}
    ]},
    {"smiles": "COc1cc(Nc2nc(-c3cnc4c(c3)NCCO4)cn3ccnc23)ccc1N1CCN(C2COC2)C(C)(C)C1", "note": "[Compound 84, 6-(2,3-dihydro-1H-pyrido[2,3-b][1,4]oxazin-7-yl)-N-(4-(3,3-dimethyl-4-(oxetan-3-yl)piperazin-1-yl)-3-methoxyphenyl)imidazo[1,2-a]pyrazin-8-amine]", "values": [
      {"measurement": "pIC50", "setting": "[1]", "result": 8.00}
    ]},
    {"smiles": "COc1cc(Nc2nc(-c3ccc4c(c3)NCCO4)cn3ccnc23)ccc1N1CCOCC1", "note": "[Compound 14x, 6-(3,4-dihydro-2H-benzo[b][1,4]oxazin-6-yl)-N-(3-methoxy-4-moipholinophenyl)imidazo[1,2-a]pyrazin-8-amine, reference compound]", "values": [
      {"measurement": "solubility at 24 h", "setting": "[2]; [3]", "result": 87, "unit": "µM"},
      {"measurement": "solubility at 24 h", "setting": "[2]; [4]", "result": 10, "unit": "µM"},
      {"measurement": "solubility at 24 h", "setting": "[2]; [5]", "result": 8, "unit": "µM"}
    ]},
    {"smiles": "CC(C)c1ncc(Nc2nc(-c3cnc4c(c3)NCCO4)cn3ccnc23)s1", "note": "[Compound 54, N-(6-(2,3-dihydro-1H-pyrido[2,3-b][1,4]oxazin-7-yl)imidazo[1,2-a]pyrazin-8-yl)-2-isopropylthiazol-5-amine]", "values": [
      {"measurement": "pIC50", "setting": "[1]", "result": 8.40}
    ]}
  ]
}
